Data: PubChem BioAssay (NCI)
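GI50 = concentration required for 50% inhibition of growth. The concentration for full growth arrest is given as TGI.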

Columns and labels:
Experiment in all cases: NCI anticancer screen, dose series, 384-well format
COLO 205 colon = system: COLO 205 colon
HT29 colon = system: HT29 colon
SW-620 colon = system: SW-620 colon
UACC-257 melanoma = system: UACC-257 melanoma
HOP-92 NSCLC = system: HOP-92 NSCLC
SN12C renal = system: SN12C renal
TK-10 renal = system: TK-10 renal
K-562 leukemia = system: K-562 leukemia
MDA-MB-231 breast = system: MDA-MB-231 breast
HOP-62 NSCLC = system: HOP-62 NSCLC
SF-268 CNS = system: SF-268 CNS
RPMI-8226 leukemia = system: RPMI-8226 leukemia
M14 melanoma = system: M14 melanoma
OVCAR-4 ovarian = system: OVCAR-4 ovarian
HCT-15 colon = system: HCT-15 colon
OVCAR-5 ovarian = system: OVCAR-5 ovarian
T-47D breast = system: T-47D breast
PC-3 prostate = system: PC-3 prostate
MOLT-4 leukemia = system: MOLT-4 leukemia
SK-MEL-5 melanoma = system: SK-MEL-5 melanoma
NCI-H460 NSCLC = system: NCI-H460 NSCLC
MALME-3M melanoma = system: MALME-3M melanoma
MDA-MB-435 melanoma = system: MDA-MB-435 melanoma
RXF 393 renal = system: RXF 393 renal
DU-145 prostate = system: DU-145 prostate
CCRF-CEM leukemia = system: CCRF-CEM leukemia
HCC-2998 colon = system: HCC-2998 colon
BT-549 breast = system: BT-549 breast
NCI-H226 lung = system: NCI-H226 lung
OVCAR-8 ovarian = system: OVCAR-8 ovarian
HL-60(TB) leukemia = system: HL-60(TB) leukemia
UACC-62 melanoma = system: UACC-62 melanoma
ACHN renal = system: ACHN renal
CAKI-1 renal = system: CAKI-1 renal
NCI-H322M lung = system: NCI-H322M lung
NCI-H23 lung = system: NCI-H23 lung
MCF7 breast = system: MCF7 breast
UO-31 renal = system: UO-31 renal
IGROV1 ovarian = system: IGROV1 ovarian
U251 glioblastoma = system: U251 glioblastoma
SNB-19 CNS = system: SNB-19 CNS
HCT-116 colon = system: HCT-116 colon
SF-295 CNS = system: SF-295 CNS
OVCAR-3 ovarian = system: OVCAR-3 ovarian
KM12 colon = system: KM12 colon
SF-539 CNS = system: SF-539 CNS
MDA-MB-468 breast = system: MDA-MB-468 breast
SK-MEL-28 melanoma = system: SK-MEL-28 melanoma
EKVX NSCLC = system: EKVX NSCLC
LOX IMVI melanoma = system: LOX IMVI melanoma
SK-OV-3 ovarian = system: SK-OV-3 ovarian
NCI-H522 lung = system: NCI-H522 lung
A549 NSCLC = system: A549 NSCLC
SNB-75 CNS = system: SNB-75 CNS
A498 renal = system: A498 renal
HS 578T breast = system: HS 578T breast
786-0 renal = system: 786-0 renal
NCI/ADR-RES ovarian = system: NCI/ADR-RES ovarian

Compound: NC(=O)[C@@H](CCC(F)(F)F)N(Cc1ccc(-c2ncon2)cc1F)S(=O)(=O)c1ccc(Cl)cc1
- GI50 (COLO 205 colon): 15.5 µM
- TGI (COLO 205 colon): 30.2 µM
- GI50 (HT29 colon): 14.2 µM
- TGI (HT29 colon): 27.4 µM
- GI50 (SW-620 colon): 17.6 µM
- TGI (SW-620 colon): 32.5 µM
- GI50 (UACC-257 melanoma): 14.1 µM
- TGI (UACC-257 melanoma): 27.3 µM
- GI50 (HOP-92 NSCLC): 13.1 µM
- TGI (HOP-92 NSCLC): 26.2 µM
- GI50 (SN12C renal): 16.7 µM
- TGI (SN12C renal): 30.5 µM
- GI50 (TK-10 renal): 18.3 µM
- TGI (TK-10 renal): 36.4 µM
- GI50 (K-562 leukemia): 13.5 µM
- TGI (K-562 leukemia): 26.7 µM
- GI50 (MDA-MB-231 breast): 14.6 µM
- TGI (MDA-MB-231 breast): 28.5 µM
- GI50 (HOP-62 NSCLC): 14.7 µM
- TGI (HOP-62 NSCLC): 28.1 µM
- GI50 (SF-268 CNS): 13 µM
- TGI (SF-268 CNS): 25.8 µM
- GI50 (RPMI-8226 leukemia): 13.6 µM
- TGI (RPMI-8226 leukemia): 26.6 µM
- GI50 (M14 melanoma): 12.5 µM
- TGI (M14 melanoma): 25.1 µM
- GI50 (OVCAR-4 ovarian): 14.7 µM
- TGI (OVCAR-4 ovarian): 28.1 µM
- GI50 (HCT-15 colon): 15.4 µM
- TGI (HCT-15 colon): 29.9 µM
- GI50 (OVCAR-5 ovarian): 17.7 µM
- TGI (OVCAR-5 ovarian): 33.8 µM
- GI50 (T-47D breast): 2.15 µM
- TGI (T-47D breast): 10.5 µM
- GI50 (PC-3 prostate): 12.7 µM
- TGI (PC-3 prostate): 25.8 µM
- GI50 (MOLT-4 leukemia): 5.98 µM
- TGI (MOLT-4 leukemia): 19.8 µM
- GI50 (SK-MEL-5 melanoma): 12.9 µM
- TGI (SK-MEL-5 melanoma): 25.8 µM
- GI50 (NCI-H460 NSCLC): 15.5 µM
- TGI (NCI-H460 NSCLC): 29.2 µM
- GI50 (MALME-3M melanoma): 13.4 µM
- TGI (MALME-3M melanoma): 26.2 µM
- GI50 (MDA-MB-435 melanoma): 13.5 µM
- TGI (MDA-MB-435 melanoma): 26.8 µM
- GI50 (RXF 393 renal): 11.7 µM
- TGI (RXF 393 renal): 23.9 µM
- GI50 (DU-145 prostate): 19 µM
- TGI (DU-145 prostate): 36.4 µM
- GI50 (CCRF-CEM leukemia): 11.6 µM
- TGI (CCRF-CEM leukemia): 23.8 µM
- GI50 (HCC-2998 colon): 3.09 µM
- TGI (HCC-2998 colon): 12.6 µM
- GI50 (BT-549 breast): 17.2 µM
- TGI (BT-549 breast): 32.2 µM
- GI50 (NCI-H226 lung): 14.4 µM
- TGI (NCI-H226 lung): 28.3 µM
- GI50 (OVCAR-8 ovarian): 17.1 µM
- TGI (OVCAR-8 ovarian): 31 µM
- GI50 (HL-60(TB) leukemia): 14 µM
- TGI (HL-60(TB) leukemia): 27.1 µM
- GI50 (UACC-62 melanoma): 11.4 µM
- TGI (UACC-62 melanoma): 23.6 µM
- GI50 (ACHN renal): 16 µM
- TGI (ACHN renal): 30 µM
- GI50 (CAKI-1 renal): 15.9 µM
- TGI (CAKI-1 renal): 30.9 µM
- GI50 (NCI-H322M lung): 15 µM
- TGI (NCI-H322M lung): 29.5 µM
- GI50 (NCI-H23 lung): 14.6 µM
- TGI (NCI-H23 lung): 28.6 µM
- GI50 (MCF7 breast): 14.5 µM
- TGI (MCF7 breast): 28.3 µM
- GI50 (UO-31 renal): 13 µM
- TGI (UO-31 renal): 25.9 µM
- GI50 (IGROV1 ovarian): 16.4 µM
- TGI (IGROV1 ovarian): 30.5 µM
- GI50 (U251 glioblastoma): 17.3 µM
- TGI (U251 glioblastoma): 31.1 µM
- GI50 (SNB-19 CNS): 16.9 µM
- TGI (SNB-19 CNS): 31.5 µM
- GI50 (HCT-116 colon): 15.2 µM
- TGI (HCT-116 colon): 28.8 µM
- GI50 (SF-295 CNS): 17 µM
- TGI (SF-295 CNS): 31 µM
- GI50 (OVCAR-3 ovarian): 15.6 µM
- TGI (OVCAR-3 ovarian): 29.1 µM
- GI50 (KM12 colon): 15 µM
- TGI (KM12 colon): 28.7 µM
- GI50 (SF-539 CNS): 17.7 µM
- TGI (SF-539 CNS): 31.7 µM
- GI50 (MDA-MB-468 breast): 3.28 µM
- TGI (MDA-MB-468 breast): 22.1 µM
- GI50 (SK-MEL-28 melanoma): 18.1 µM
- TGI (SK-MEL-28 melanoma): 32.1 µM
- GI50 (EKVX NSCLC): 15.8 µM
- TGI (EKVX NSCLC): 31.4 µM
- GI50 (LOX IMVI melanoma): 14.4 µM
- TGI (LOX IMVI melanoma): 27.8 µM
- GI50 (SK-OV-3 ovarian): 17.5 µM
- TGI (SK-OV-3 ovarian): 34.4 µM
- GI50 (NCI-H522 lung): 17.7 µM
- TGI (NCI-H522 lung): 31.6 µM
- GI50 (A549 NSCLC): 14.6 µM
- TGI (A549 NSCLC): 28.1 µM
- GI50 (SNB-75 CNS): 14.1 µM
- TGI (SNB-75 CNS): 28.1 µM
- GI50 (A498 renal): 17.7 µM
- TGI (A498 renal): 31.8 µM
- GI50 (HS 578T breast): 12.6 µM
- TGI (HS 578T breast): 25.2 µM
- GI50 ([…]-0 renal): 14.4 µM
- TGI (786-0 renal): 27.6 µM
- GI50 (NCI/ADR-RES ovarian): 17.1 µM
- TGI (NCI/ADR-RES ovarian): 32 µM
